Assay [1] in a line: Compound was evaluated for concentration that caused 50% inhibition of yeast Farnesyltransferase (expressed as a GST fusion protein in Escherichia coli).
Assay [2] in a line: Compound was evaluated for concentration that caused 50% inhibition of bovine Farnesyltransferase.

Broadly, the IC50 is the concentration needed to halve the response being measured. Low values mean inhibition by little substance, high ones a need for much substance.

SMILES strings stand for the structures.

In assay [1], `CSCC[C@H](NC(=O)[C@@H]1CC[C@@H]2CC[C@](Cc3ccccc3)(NC(=O)[C@H](CS)NC(=O)OCC3c4ccccc4-c4ccccc43)C(=O)N21)C(=O)O` [(S)-2-({(3S,6R,8aR)-6-Benzyl-6-[(R)-2-(9H-fluoren-9-ylmethoxycarbonylamino)-3-mercapto-propionylamino]-5-oxo-octahydro-indolizine-3-carbonyl}-amino)-4-methylsulfanyl-butyric acid] showed an IC50 of 5 µM.

On to `CSCCC(NC(=O)[C@@H]1CC[C@@H]2CC[C@](Cc3ccccc3)(NC(=O)[C@@H](N)CS)C(=O)N21)C(=O)O` (stereo partly drawn) [(S)-2-{[(3S,6R,8aR)-6-((R)-2-Amino-3-mercapto-propionylamino)-6-benzyl-5-oxo-octahydro-indolizine-3-carbonyl]-amino}-4-methylsulfanyl-butyric acid], for which, in assay [2], the half-maximal inhibitory concentration (IC50) was more than 200 µM.

Compound `CSCC[C@H](NC(=O)[C@@H]1CC[C@@H]2CCC[C@H](NC(=O)[C@H](N)CS)C(=O)N21)C(=O)O` [(S)-2-{[(3S,6S,9aS)-6-((S)-2-Amino-3-mercapto-propionylamino)-5-oxo-octahydro-pyrrolo[1,2-a]azepine-3-carbonyl]-amino}-4-methylsulfanyl-butyric acid] returned a concentration for half-maximal inhibition (IC50) in assay [2] of more than 200 µM.

Turning to `CSCC[C@H](NC(=O)[C@H](Cc1ccccc1)NC[C@@H](NC[C@@H](N)CS)C(C)C)C(=O)O` [N-[2(S)-[2(R)-amino-3-mercaptopropylamino]-3-methylbutyl]-Phe-Met-OH], the results for the IC50 in assay [1] and in assay [2] were 0.3 µM and 0.021 µM, respectively.
